The values below come from patent publication US9173898B2, “Methods of treating giardiasis” (THE UNITED STATES OF AMERICA, as represented by the …, priority 2010, dated 2015).

Values after ≈ are worked out from the molar mass of the structure shown. Read-outs that look alike come from different tables or passages of the source. A value given as a limit tells only on which side of the number the result lay.

The test system of assay [1] is Giardia lamblia GS isolate. Put plainly: Trophozoite enumeration assay. The assay is classed as cell-based. The conditions noted are these: Giardia duodenalis; G. lamblia GS isolate; 48 hrs, cell counting in hemocytometer. The method, then:
Giardia lamblia GS isolate was plated into sterile 96-well black clear-bottom assay plates at 10,000 cells/well density and 120 μL/well volume in culture media. Compounds tested were prepared as 50 mM DMSO solutions in a 12 point 1:3 titration series in DMSO, with exceptions being carbadox, Bortezomib and BTO-1, which were used at 10 mM top concentration due to solubility limitations. Compound titration series were added to duplicate assay wells as 0.5 μL/well and the assay plates were incubated anaerobically in Type A Bio-Bag (BD Diagnostics) for 48 hrs at 37° C. Cell density was visually scored in each well and the 6 wells surrounding the visually determined IC50 concentrations were quantitated by cell counting. For enumeration, trophozoites were detached on ice for 30 min and resuspended via pipetting. 75 μL of culture was removed from each well, mixed with 65 μL of 0.4% Trypan Blue and 10 μL of 30% bleach (final concentration of 2% bleach) to immobilize trophozoites. Trophozoites were then counted in a hemocytometer.

Assay [2] deals with Giardia lamblia GS isolate. Put plainly: Minimum Lethal Concentration (MLC) determination. The assay is classed as cell-based. The note with it: Giardia duodenalis, 72 h; 3 days with compound, then 3 days regrowth without compound; tube without any live organisms. The procedure:
Giardia lamblia GS isolate was used throughout the Minimal Lethal Concentration (MLC) experiments. Organisms were grown and maintained in TYI-S-33 medium supplemented with bile and antibiotics (Keister, 1983). Cidal activity was determined in 96-well culture plates (Corning Incorporated) followed by Giardia trophozoites regrowth in 8 ml tubes (Fisher Scientific). Dry compounds were dissolved in DMSO (Sigma) at stock concentration of 10 mM and then added to the growth media to ensure final DMSO concentration of no more than 0.5%. 100 μl of the compound solutions were placed in the wells by serial dilutions. 10 μl of Giardia trophozoites containing 10000 organisms were then added. Serial dilutions of metronidazole served as the positive control and the DMSO-containing medium served as the negative control. Plates were incubated under anaerobic conditions in sealed bags (Becton Dickinson and Company) at 37° C. for 3 days and surveyed visually under microscope to check survival, mobility and attachment of trophozoites. The plate was chilled on ice for 30 min and the entire contents of 4 wells in the growth/death transition were transferred into the 8 ml tubes containing growth media only (without the compound). After 3 days of incubation at 37° C., tubes were checked under microscope for any surviving trophozoites. MLC was attributed to the tube without any live organisms. See, e.g., Keister, D. B. 1983. Axenic culture of Giardia lamblia in TYI-S-33 medium supplemented with bile. Trans. Soc. Trop. Med. Hyg. 77:487-488.

Assay [3] concerns G. lamblia WB trophozoite. Put plainly: Giardia viability (ATP content) assay in 96-well format. The assay is classed as cell-based, Giardia lamblia. The method, then:
Giardia trophozoites were plated at a density of 2500 cells/well in 120 μL media in sterile 96-well black clear-bottom assay plates. Mnz was serially diluted from 100 mM stock solution 1:4 in DMSO and then 0.5 μL/well of Mnz titrations or DMSO control were transferred in duplicates to the assay wells using a multichannel pipette. The assay plates were covered with plastic low-evaporation lids and individually sealed with anaerobic generators (Type A Bio-Bag, BD Diagnostics) to create anaerobic growth environment. The sealed Bio-Bags were incubated at 37° C. for indicated periods. Following incubation, 80 μL/well of the ATPLite reagent (PerkinElmer) was added to the assay plates for one-step lysis and ATP level detection. The plates were centrifuged briefly (1000 RPM, 30 seconds) and incubated at room temperature for 20 min. The luminescent signals of assay plates were measured on a ViewLux plate reader (PerkinElmer). Signal-to-basal (S/B) ratios and Z′ factors were calculated from 8 wells containing 0.42% DMSO (total signal) and 8 wells containing 41.7 μM Mnz (basal signal).
A commercially available ATP detection kit to measure the viability of G. lamblia after compound treatment. […] The DMSO tolerance of trophozoites was assessed in this assay as DMSO is used to dissolve the compounds in the library. […]

In a further assay the test system is Giardia WB. As to the kind of experiment: Giardia viability (ATP content) assay in 1536-well format. The assay is classed as cell-based, Giardia lamblia. The conditions noted are these: Giardia, 1536-well (FIG. 2a), read-out: Calculated EC50. The procedure: (§1) For the viability assay in 1536-well format, 2 μL media was dispensed per well into 1536-well white solid-bottom plates using a Multidrop Combi dispenser (Thermo Scientific). Subsequently, 23 nL/well compound solutions or DMSO controls were dispensed to the assay plates containing media via a pintool workstation (Kalypsys, San Diego). Trophozoites were chilled on ice to detach from glass tubes, and unless otherwise noted, were diluted to 250,000 trophozoites/mL with ice cold media. The trophozoite suspension was kept on ice and dispensed as 4 μL/well with the Multidrop Combi dispenser. Attachment of trophozoites to dispensing apparatus was avoided with continuous dispensing and icing of the trophozoite suspension. The plates were covered with plastic low-evaporation lids, individually sealed in Type A Bio-Bags and incubated at 37° C. for 48 hours. Following incubation, 4 μL/well of ATPLite reagent was dispensed with the Multidrop Combi dispenser. The assay plates were briefly centrifuged at 1000 RPM and luminescence signal was detected on a ViewLux plate reader (PerkinElmer) after 20 min incubation at room temperature. Signal-to-basal (S/B) ratio, Z′ factor and coefficient of variation (CV) were calculated from 32 wells with 0.38% DMSO (total signal) and 32 well with 38.3 μM Mnz (basal signal).
Assay miniaturization in 1,536-well plate format was undertaken to increase throughput and facilitate screening of large compound libraries. The volume of trophozoites suspension was reduced to 6 μL/well and the ATP detection reagent was reduced to 4 μL/well in the 1536-well assay plates. […] The 100 trophozoites/well density was selected for further experiments to reduce the preparation work of Giardia cultures. Following these conditions, a DMSO test plate was used to assess the statistical parameters of the assay in the 1,536-well plate format.
Using the above established conditions in 1536-well format, each compound of the invention was tested at 5 concentration points, ranging from 61 nM-38.3 μM in a 1:5 dilution ratio (Inglese, J., D. S. Auld, A. Jadhav, R. L. Johnson, A. Simeonov, A. Yasgar, W. Zheng, and C. P. Austin. 2006. Quantitative high-throughput screening: a titration-based approach that efficiently identifies biological activities in large chemical libraries. Proc Natl Acad Sci USA 103:11473-8).

The subject of the next assay is G. lamblia GS isolate. Put plainly: ATP content assay against G. lamblia GS isolate. Format: cell-based, Giardia lamblia. The note with it: G. lamblia GS isolate, purchased powder samples. The method, then: as §1
As a further confirmatory step, some compounds that were commercially available were purchased as powder samples and tested against the G. lamblia GS isolate using both the ATP content and enumeration assays (Table 3).

A word on the IC50: it is the concentration that gives 50% inhibition. As usually defined, the MBC is the smallest concentration meeting the test's criterion for killing. For orientation: EC50 means the concentration giving half of the maximal effect. In the case of `Cc1ncc([N+](=O)[O-])n1CCO` [Metronidazole], the IC50 in assay [1] was determined as 2.2 µM; in assay [3] (Giardia duodenalis, 96-well format, 48 hr (FIG. 1c), read-out: IC50 of inhibition of the ATP content signal), 2.1 µM; in the assay with G. lamblia GS isolate (Giardia duodenalis, read-out: ATP Content IC50), 1.6 µM. The minimal bactericidal concentration (MBC) in assay [2] worked out at 7.7 µM (≈ 1.32 µg/mL). Further, in assay [3] (41.7 μM Mnz treatment, all time points tested (FIG. 1a)), the “ATP content relative to DMSO control values” is reported as less than 5%. In addition, the EC50 in the assay with Giardia WB (100 cells/well Giardia density) was 2.9 µM; in the assay on Giardia WB (200 cells/well Giardia density), 2.9 µM; in the assay with Giardia WB (300 cells/well Giardia density) it was 2.1 µM. Also, the “ATP Content Efficacy” value in the assay on G. lamblia GS isolate stood at 99.7%.
